Experimental data reported in paper PMC4954055, “A Self‐Assembled Respiratory Chain that Catalyzes NADH Oxidation by Ubiquinone‐10 Cycling between Complex I and the Alternative Oxidase” (Angewandte Chemie (International Ed. in English), 2015).

Biological target: T1, alternative oxidase (AOX) (Trypanosoma brucei, UniProt Q26710)
T1 construct: single-subunit quinol oxidase reconstituted into proteoliposomes
Test: coupled NADH:O2 oxidoreduction in CI/Q10/AOX proteoliposomes
Assay type: biochemical
Conditions: complex I rate determining; Q10H2 formed in the membrane by complex I

T1 sequence (Q26710 25-329): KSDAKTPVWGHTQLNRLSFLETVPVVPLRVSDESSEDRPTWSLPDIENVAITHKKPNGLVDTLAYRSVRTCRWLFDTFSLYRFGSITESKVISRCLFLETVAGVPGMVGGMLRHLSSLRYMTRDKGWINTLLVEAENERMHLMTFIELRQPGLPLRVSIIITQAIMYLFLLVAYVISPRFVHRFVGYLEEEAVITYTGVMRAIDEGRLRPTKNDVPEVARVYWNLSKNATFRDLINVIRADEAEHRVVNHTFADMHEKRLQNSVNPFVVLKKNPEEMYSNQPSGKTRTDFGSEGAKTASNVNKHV

COc1c(O)c(C)c(C/C=C(\C)CC/C=C(\C)CC/C=C(\C)CC/C=C(\C)CC/C=C(\C)CC/C=C(\C)CC/C=C(\C)CC/C=C(\C)CC/C=C(\C)CCC=C(C)C)c(O)c1OC [Q10H2]
coupled NADH:O2 oxidoreduction in CI/Q10/AOX proteoliposomes: AOX reoxidizes the Q10H2 and reduces O2 to H2O
